Measurements: patent US6737383B1, “Herbicidal oxadiazolidines” (priority 1999, dated 2004)

Legend:
bedstraw = assay: Test B pre/postemergence bedstraw; format: in vivo, Galium aparine
Procedure, shortened: (§1)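 Response is a visual 0-to-10 score relative to untreated plants, where 0 means no effect and 10 means complete control, taken twelve to sixteen days after application. Treatments went onto soil at planting and onto foliage of 1- to 4-leaf plants, using a surfactant-containing non-phytotoxic solvent.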

velvetleaf = assay: Test B pre/postemergence velvetleaf; format: in vivo, Abutilon theophrasti; details: for Plant response rating, Velvetleaf: Postemergence
Procedure, shortened: as §1

morningglory = assay: Test B pre/postemergence morningglory; format: in vivo, Ipomoea hederacea
Procedure, shortened: as §1

purple nutsedge = assay: Test B pre/postemergence purple nutsedge; format: in vivo, Cyperus rotundus
Source text: (§2) Seeds of bedstraw (Galium aparine), blackgrass (Alopecurus myosuroides), surinam grass (Brachiaria decumbens), cocklebur (Xanthium strumarium), corn (Zea mays), crabgrass (Digitaria sanguinalis), giant foxtail (Setaria faberii), morningglory (Ipomoea hederacea), pigweed (Amaranthus retroflexus), rape (Brassica napus), soybean (Glycine max), sugar beet (Beta vulgaris), velvetleaf (Abutilon theophrasti), wheat (Triticum aestivum), wild oat (Avena fatua) and purple nutsedge (Cyperus rotundus) tubers were planted and treated preemnergence with test chemicals formulated in a non-phytotoxic solvent mixture which included a surfactant.
(§3) At the same time, these crop and weed species were also treated with postemergence applications of test chemicals formulated in the same manner. Plants ranged in height from 2 to 18 cm (1- to 4-leaf stage) for postemergence treatments. Plant species in the flood test consisted of rice (Oryza sativa), smallflower flatsedge (Cyperus difformis), duck salad (Heteranthera limosa) and bamyardgrass (Echinochloa crus-galli) grown to the 2-leaf stage for testing. Treated plants and controls were maintained in a greenhouse for twelve to sixteen days, after which all species were compared to controls and visually evaluated. Plant response ratings, summarized in Table B, are based on a scale of 0 to 10 where 0 is no effect and 10 is complete control. A dash (−) response means no test result.

wild oat = assay: Test B pre/postemergence wild oat; format: in vivo, Avena fatua; details: for Plant response rating, Wild oats: Postemergence
Source text: as §2, §3

pigweed = assay: Test B pre/postemergence pigweed; format: in vivo, Amaranthus retroflexus; details: for Plant response rating, Redroot pigweed: Postemergence; for Plant response rating, Redroot pigweed / Redroot pigweed plant response rating: scale of 0 to 10 where 0 is no effect and 10 is complete control
Source text: as §2, §3

surinam grass = assay: Test B pre/postemergence surinam grass; format: in vivo, Brachiaria decumbens
Source text: as §2, §3

giant foxtail = assay: Test B pre/postemergence giant foxtail; format: in vivo, Setaria faberii
Source text: as §2, §3

corn = assay: Test B pre/postemergence corn; format: in vivo, Zea mays
Source text: as §2, §3

cocklebur = assay: Test B pre/postemergence cocklebur; format: in vivo, Xanthium strumarium
Source text: as §2, §3

sugar beet = assay: Test B pre/postemergence sugar beet; format: in vivo, Beta vulgaris; details: for Plant response rating, Sugarbeets: Postemergence
Source text: as §2, §3

crabgrass = assay: Test B pre/postemergence crabgrass; format: in vivo, Digitaria sanguinalis
Procedure, shortened: as §1

soybean = assay: Test B pre/postemergence soybean; format: in vivo, Glycine max; details: for Plant response rating, Soybean: Postemergence
Source text: as §2, §3

rape = assay: Test B pre/postemergence rape; format: in vivo, Brassica napus
Source text: as §2, §3

wheat = assay: Test B pre/postemergence wheat; format: in vivo, Triticum aestivum; details: for Plant response rating, Wheat: Postemergence
Source text: as §2, §3

blackgrass = assay: Test B pre/postemergence blackgrass; format: in vivo, Alopecurus myosuroides
Source text: as §2, §3

[1] = Postemergence, Rate 62 g/ha, scale of 0 to 10, 0 is no effect, 10 is complete control
[2] = Postemergence, Rate 125 g/ha, scale of 0 to 10 where 0 is no effect and 10 is complete control
[3] = Postemergence, Rate 500 g/ha, scale of 0 to 10 where 0 is no effect and 10 is complete control
[4] = Preemergence, Rate 62 g/ha, scale 0 to 10 (0 no effect, 10 complete control)
[5] = Preemergence, Rate 125 g/ha, scale of 0 to 10 where 0 is no effect and 10 is complete control
[6] = Preemergence, Rate 500 g/ha, scale of 0 to 10 where 0 is no effect and 10 is complete control
[7] = Rate 125 g/ha, scale of 0 to 10 where 0 is no effect and 10 is complete control
[8] = Rate 500 g/ha, scale of 0 to 10 where 0 is no effect and 10 is complete control
[9] = Rate 250 g/ha, scale of 0 to 10 where 0 is no effect and 10 is complete control
[10] = Rate 250 g/ha, Postemergence, scale of 0 to 10 where 0 is no effect and 10 is complete control

Compound: CC(C)N(C(=O)n1oc(=O)n(CCCCF)c1=O)c1ccccc1 [Compound 581]
- Bedstraw plant response rating (bedstraw; [1]): 0
- Plant response rating, Bedstraw (bedstraw; [2]): 8
- Plant response rating, Bedstraw (bedstraw; [3]): 9
- Bedstraw plant response rating (bedstraw; [4]): 8
- Bedstraw plant response rating (bedstraw; [5]): 9
- Bedstraw plant response rating (0 to 10 scale) (bedstraw; Preemergence, Rate 250 g/ha): 7
- Bedstraw plant response rating (bedstraw; [6]): 9
- Plant response rating, Velvetleaf (velvetleaf; [7]): 4
- Plant response rating, Velvetleaf (velvetleaf; [8]): 6
- Velvetleaf plant response rating (velvetleaf; [4]): 5
- Velvetleaf plant response rating (velvetleaf; [5]): 5
- Velvetleaf plant response rating (0 to 10 scale) (velvetleaf; Preemergence, Rate 250 g/ha): 5
- Velvetleaf plant response rating (velvetleaf; [6]): 10
- Plant response rating, Velvetleaf (velvetleaf; [9]): 6
- Morningglory plant response rating (morningglory; [1]): 4
- Plant response rating, Morningglory (morningglory; [2]): 8
- Plant response rating, Morningglory (morningglory; [3]): 10
- Morningglory plant response rating (morningglory; [4]): 0
- Morningglory plant response rating (morningglory; [5]): 2
- Morningglory plant response rating (0 to 10 scale) (morningglory; Preemergence, Rate 250 g/ha): 4
- Morningglory plant response rating (morningglory; [6]): 6
- Plant response rating, Morningglory (morningglory; [10]): 7
- Nutsedge plant response rating (purple nutsedge; [1]): 0
- Nutsedge plant response rating (purple nutsedge; [4]): 0
- Nutsedge plant response rating (purple nutsedge; [5]): 0
- Nutsedge plant response rating (0 to 10 scale) (purple nutsedge; Preemergence, Rate 250 g/ha): 4
- Nutsedge plant response rating (purple nutsedge; [6]): 8
- Plant response rating, Wild oats (wild oat; [7]): 5
- Plant response rating, Wild oats (wild oat; [8]): 5
- Wild oats plant response rating (wild oat; [4]): 0
- Wild oats plant response rating (wild oat; [5]): 0
- Wild oats plant response rating (0 to 10 scale) (wild oat; Preemergence, Rate 250 g/ha): 0
- Wild oats plant response rating (wild oat; [6]): 8
- Plant response rating, Wild oats (wild oat; [9]): 5
- Plant response rating, Redroot pigweed (pigweed; Rate 125 g/ha): 8
- Plant response rating, Redroot pigweed (pigweed; Rate 500 g/ha): 9
- Redroot pigweed plant response rating (pigweed; Preemergence, Rate 125 g/ha): 5
- Redroot pigweed plant response rating (0 to 10 scale) (pigweed; Preemergence, Rate 250 g/ha): 9
- Redroot pigweed plant response rating (pigweed; Preemergence, Rate 500 g/ha): 10
- Plant response rating, Redroot pigweed (pigweed; Rate 250 g/ha): 8
- B. signalgrass plant response rating (surinam grass; [1]): 5
- Plant response rating, B. signalgrass (surinam grass; [2]): 5
- Plant response rating, B. signalgrass (surinam grass; [3]): 8
- B. signalgrass plant response rating (surinam grass; [4]): 0
- B. signalgrass plant response rating (surinam grass; [5]): 0
- B. signalgrass plant response rating (0 to 10 scale, 0 is no effect, 10 is complete control) (surinam grass; Preemergence, Rate 250 g/ha): 2
- B. signalgrass plant response rating (surinam grass; [6]): 9
- Plant response rating, B. signalgrass (surinam grass; [10]): 7
- Giant foxtail plant response rating (giant foxtail; [1]): 7
- Plant response rating, Giant foxtail (giant foxtail; [2]): 8
- Plant response rating, Giant foxtail (giant foxtail; [3]): 9
- Giant foxtail plant response rating (giant foxtail; [4]): 4
- Giant foxtail plant response rating (giant foxtail; [5]): 10
- Giant foxtail plant response rating (0 to 10 scale) (giant foxtail; Preemergence, Rate 250 g/ha): 9
- Giant foxtail plant response rating (giant foxtail; [6]): 10
- Plant response rating, Giant foxtail (giant foxtail; [10]): 8
- Corn plant response rating (corn; [1]): 2
- Plant response rating, Corn (corn; [2]): 4
- Plant response rating, Corn (corn; [3]): 6
- Corn plant response rating (corn; [4]): 0
- Corn plant response rating (corn; [5]): 2
- Corn plant response rating (0 to 10 scale) (corn; Preemergence, Rate 250 g/ha): 7
- Corn plant response rating (corn; [6]): 9
- Plant response rating, Corn (corn; [10]): 5
- Cocklebur plant response rating (cocklebur; [1]): 2
- Plant response rating, Cocklebur (cocklebur; [3]): 3
- Cocklebur plant response rating (cocklebur; [4]): 0
- Cocklebur plant response rating (cocklebur; [5]): 0
- Cocklebur plant response rating (0 to 10 scale) (cocklebur; Preemergence, Rate 250 g/ha): 0
- Cocklebur plant response rating (cocklebur; [6]): 0
- Plant response rating, Cocklebur (cocklebur; [10]): 3
- Plant response rating, Sugarbeets (sugar beet; [7]): 5
- Plant response rating, Sugarbeets (sugar beet; [8]): 8
- Sugarbeets plant response rating (sugar beet; [4]): 0
- Sugarbeets plant response rating (sugar beet; [5]): 0
- Sugarbeets plant response rating (0 to 10 scale) (sugar beet; Preemergence, Rate 250 g/ha): 0
- Sugarbeets plant response rating (sugar beet; [6]): 9
- Plant response rating, Sugarbeets (sugar beet; [9]): 7
- Crabgrass plant response rating (crabgrass; [1]): 3
- Plant response rating, Crabgrass (crabgrass; [2]): 7
- Plant response rating, Crabgrass (crabgrass; [3]): 9
- Crabgrass plant response rating (crabgrass; [4]): 4
- Crabgrass plant response rating (crabgrass; [5]): 9
- Crabgrass plant response rating (0 to 10 scale) (crabgrass; Preemergence, Rate 250 g/ha): 8
- Crabgrass plant response rating (crabgrass; [6]): 9
- Plant response rating, Crabgrass (crabgrass; [10]): 7
- Plant response rating, Soybean (soybean; [7]): 4
- Plant response rating, Soybean (soybean; [8]): 5
- Soybean plant response rating (soybean; [4]): 0
- Soybean plant response rating (soybean; [5]): 0
- Soybean plant response rating (0 to 10 scale) (soybean; Preemergence, Rate 250 g/ha): 5
- Soybean plant response rating (soybean; [6]): 7
- Plant response rating, Soybean (soybean; [9]): 4
- Rape plant response rating (rape; [1]): 0
- Plant response rating, Rape (rape; [2]): 7
- Plant response rating, Rape (rape; [3]): 7
- Rape plant response rating (rape; [4]): 0
- Rape plant response rating (rape; [5]): 0
- Rape plant response rating (0 to 10 scale) (rape; Preemergence, Rate 250 g/ha): 2
- Rape plant response rating (rape; [6]): 7
- Plant response rating, Rape (rape; [10]): 7
- Plant response rating, Wheat (wheat; [7]): 4
- Plant response rating, Wheat (wheat; [8]): 4
- Wheat plant response rating (wheat; [4]): 0
- Wheat plant response rating (wheat; [5]): 0
- Wheat plant response rating (0 to 10 scale) (wheat; Preemergence, Rate 250 g/ha): 2
- Wheat plant response rating (wheat; [6]): 5
- Plant response rating, Wheat (wheat; [9]): 4
- Blackgrass plant response rating (blackgrass; [1]): 4
- Plant response rating, Blackgrass (blackgrass; [2]): 4
- Plant response rating, Blackgrass (blackgrass; [3]): 4
- Blackgrass plant response rating (blackgrass; [4]): 0
- Blackgrass plant response rating (blackgrass; [5]): 0
- Blackgrass plant response rating (0 to 10 scale) (blackgrass; Preemergence, Rate 250 g/ha): 0
- Blackgrass plant response rating (blackgrass; [6]): 7
- Plant response rating, Blackgrass (blackgrass; [10]): 4
